How the values were obtained:
Format in all cases: biochemical
[1] = biological target: T1, Ec FucO (Escherichia coli, UniProt P0A9S1); assay: purified enzyme within 4-enzyme cascade, NADH oxidation at […] nm; conditions: glycolaldehyde formed by Ec YagE from 1 mM xylonolactone via cascade; 2 mM NADH, 50 mM Tris-HCl pH 7.0, 22 °C
T1 sequence (P0A9S1 1-382): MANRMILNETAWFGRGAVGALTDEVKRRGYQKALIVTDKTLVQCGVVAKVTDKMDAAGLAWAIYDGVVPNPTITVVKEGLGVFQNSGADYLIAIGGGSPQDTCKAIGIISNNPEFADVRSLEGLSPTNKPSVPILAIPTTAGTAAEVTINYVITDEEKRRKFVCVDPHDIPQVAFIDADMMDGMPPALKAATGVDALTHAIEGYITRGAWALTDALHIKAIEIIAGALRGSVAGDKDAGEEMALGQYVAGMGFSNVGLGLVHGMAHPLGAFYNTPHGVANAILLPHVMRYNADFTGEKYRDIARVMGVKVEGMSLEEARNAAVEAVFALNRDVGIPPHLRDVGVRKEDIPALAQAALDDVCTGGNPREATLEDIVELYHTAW

[2] = biological target: Ab AraE (Azospirillum brasilense, UniProt Q1JUP4); assay: NADH formation at […] nm, steady-state kinetics; conditions: 50 mM Tris-HCl pH 7.0, 2 mM NAD+, 1 mM DTT, glycolaldehyde 0-2 mM
Ab AraE, sequence (Q1JUP4 whole entry): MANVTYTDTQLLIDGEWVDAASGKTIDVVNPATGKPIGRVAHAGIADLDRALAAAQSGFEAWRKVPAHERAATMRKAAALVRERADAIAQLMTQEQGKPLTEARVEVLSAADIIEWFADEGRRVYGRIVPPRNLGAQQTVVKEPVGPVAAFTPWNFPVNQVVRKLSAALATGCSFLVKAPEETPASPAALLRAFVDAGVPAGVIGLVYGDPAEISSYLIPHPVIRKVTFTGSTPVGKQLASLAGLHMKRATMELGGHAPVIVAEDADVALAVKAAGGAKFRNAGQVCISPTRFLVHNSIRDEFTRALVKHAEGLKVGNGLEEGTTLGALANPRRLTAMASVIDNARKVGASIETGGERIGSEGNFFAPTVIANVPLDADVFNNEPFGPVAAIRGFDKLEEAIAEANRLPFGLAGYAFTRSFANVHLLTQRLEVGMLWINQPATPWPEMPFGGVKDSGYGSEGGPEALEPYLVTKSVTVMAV

[3] = biological target: Ec AldA (Escherichia coli, UniProt P25553); assay: NADH formation at […] nm, steady-state kinetics; conditions: 50 mM Tris-HCl pH 7.0, 2 mM NAD+, 1 mM DTT, glycolaldehyde 0-2 mM
Ec AldA, sequence (P25553 whole entry): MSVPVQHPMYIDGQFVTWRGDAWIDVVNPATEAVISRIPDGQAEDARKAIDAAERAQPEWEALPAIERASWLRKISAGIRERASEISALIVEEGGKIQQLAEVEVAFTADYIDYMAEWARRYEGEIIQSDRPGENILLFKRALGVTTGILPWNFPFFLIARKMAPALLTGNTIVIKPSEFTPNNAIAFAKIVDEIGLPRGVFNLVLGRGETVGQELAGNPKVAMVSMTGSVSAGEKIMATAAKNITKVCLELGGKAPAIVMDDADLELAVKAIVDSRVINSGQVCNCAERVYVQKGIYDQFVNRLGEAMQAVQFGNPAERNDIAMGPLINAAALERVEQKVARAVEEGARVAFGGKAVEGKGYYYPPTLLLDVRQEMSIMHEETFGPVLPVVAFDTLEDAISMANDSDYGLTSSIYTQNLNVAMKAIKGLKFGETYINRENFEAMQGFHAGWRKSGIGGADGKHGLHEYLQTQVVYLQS

[4] = biological target: T2, Cc XylC (Caulobacter vibrioides, UniProt Q9A9Z1); assay: CD ([…] nm) and 1H-NMR lactone ring-opening assay; conditions: CD: 1 mM lactone, 10 mM Tris-HCl pH 6-8, 25 °C; NMR: 2 mM lactone, pH 6.8, 22 °C, 100 µM metal ions or EDTA
T2 construct: full length, untagged (C-terminal Strep-tag II removed), synthetic codon-optimised gene in E. coli BL21(DE3), DEAE purified, mainly monomer
T2 sequence (Q9A9Z1 whole entry): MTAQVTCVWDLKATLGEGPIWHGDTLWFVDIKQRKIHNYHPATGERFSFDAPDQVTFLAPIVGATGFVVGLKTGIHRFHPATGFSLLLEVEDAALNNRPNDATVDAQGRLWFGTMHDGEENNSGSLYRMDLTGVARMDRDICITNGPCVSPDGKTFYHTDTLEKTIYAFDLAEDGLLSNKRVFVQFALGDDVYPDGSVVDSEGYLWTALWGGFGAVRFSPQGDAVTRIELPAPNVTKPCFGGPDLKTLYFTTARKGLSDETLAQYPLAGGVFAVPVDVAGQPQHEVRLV

Row | Compound | purified enzyme within 4-enzyme cascade, NADH oxidation at 340 nm [1] | NADH formation at 340 nm, steady-state kinetics [2] | NADH formation at 340 nm, steady-state kinetics [3] | CD (220 nm) and 1H-NMR lactone ring-opening assay [4]
1 | O=CCO [glycolaldehyde] | an increase of the enzyme concentration resulted in an increase in the production levels | we compare the glycolaldehyde dependent activity of Ec AldA and Ab AraE | we compare the glycolaldehyde dependent activity of Ec AldA and Ab AraE | 
2 | O=C1O[C@H](CO)[C@H](O)[C@H]1O [D-xylono-1,4-lactone] |  |  |  | Cc XylC was able to open the xylonolactone without addition of any metal
3 | NC(=O)C1=CN([C@@H]2O[C@H](COP(=O)(O)OP(=O)(O)OC[C@H]3O[C@@H](n4cnc5c(N)ncnc54)[C@H](O)[C@@H]3O)[C@@H](O)[C@H]2O)C=CC1 [NADH] | the production of ethylene glycol was followed through generation of NAD^+ |  |  | 

From article PMC6458216, “In vitro reconstitution and characterisation of the oxidative D-xylose pathway for production of organic acids and alcohols” (AMB Express, 2019)
